Assay results as given in PubChem BioAssay (NCI).
Values joined by “and” are separate entries in the source; they are usually repeats but may differ in a detail not shown here. Equal values may be shown once.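 Each compound was tested at five concentrations against cells in 96-well plates for 48 hours. Here, GI50 denotes the concentration required for 50% inhibition of growth. At the TGI there is no net growth.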

What was measured:
Assay in all cases: growth of human tumour cells (NCI), 48 h
[1] = tested on: A498 renal
[2] = tested on: ACHN renal
[3] = tested on: BT-549 breast
[4] = tested on: DU-145 prostate
[5] = tested on: NCI-H522 lung
[6] = tested on: SK-MEL-28 melanoma
[7] = tested on: SK-MEL-5 melanoma
[8] = tested on: SNB-75 CNS
[9] = tested on: SR leukemia
[10] = tested on: OVCAR-5 ovarian

| SMILES | GI50 [1] [µM] | TGI [1] | GI50 [2] [µM] | TGI [2] [µM] | GI50 [3] [µM] | TGI [3] [µM] | GI50 [4] [µM] | TGI [4] [µM] | GI50 [5] [µM] | TGI [5] | GI50 [6] [µM] | TGI [6] | GI50 [7] [µM] | TGI [7] | GI50 [8] [µM] | TGI [8] | GI50 [9] [µM] | TGI [9] [µM] | TGI [10] | GI50 [10] [µM] |
| --- | --- | --- | --- | --- | --- | --- | --- | --- | --- | --- | --- | --- | --- | --- | --- | --- | --- | --- | --- | --- |
| O=C(Nc1ccccc1)NS(=O)(=O)c1ccc(-n2nc3c(c2-c2ccc(Cl)cc2)Cc2ccccc2-3)cc1 | 21.8 | 66.8 µM | 12.9 | 71.8 | 21 | 65.9 | 19.4 | 47 | 19 | 67.4 µM | 33.7 | > 100 µM | 22 | 69.8 µM | 48.7 | > 100 µM | 2.82 | 7.18 |  |  |
| O=C(O)c1cccc(N=Nc2c(S(=O)(=O)O)ccc3c2C(=O)c2ccccc2C3=O)c1O |  | > 100 µM |  | > 100 |  | > 100 |  | > 100 |  | > 100 µM |  | > 100 µM |  | > 100 µM |  | > 100 µM |  | > 100 | > 100 µM |  |
| COc1cc(O)c(C(=O)/C=C/c2ccc(O)cc2)c(O)c1[C@@H]1C[C@H](CCc2ccc(O)cc2)O[C@H](c2ccc(O)cc2)C1 | 14 | 28.1 µM | 3.31 | 10.9 | 4.36 | 17.6 | 3.22 | 10.9 | 2.97 | 9.94 µM | 3.83 | 14.1 µM | 3.7 | 12.8 µM | 2.59 | 7.44 µM | 2.23 | 4.65 | 19.9 µM | 7.53 |
| NC(=O)c1cc(-c2ccc(F)cc2)cc(-c2ccncc2)c1N | 4.17 | > 23.6 µM | > 25 | > 25 | > 25 | > 25 | > 25 | > 25 | > 25 | > 25 µM | > 25 | > 25 µM | > 20.2 | > 25 µM | 4.99 | > 25 µM | > 25 | > 25 | > 25 µM | > 25 |
| CCCCCCCCCCCC1CCCC(C)N1 (stereo not drawn) | 16.2 | 31.9 µM and 154 µM | 11.4 | 25.5 | 7.39 | 22.6 | 12.5 | 26.1 | 7.29 | 19.9 µM and 96.4 µM | 13.6 | 28.2 µM and 152 µM | 8.15 | 21.4 µM and 93.7 µM | 9.82 | 24 µM and 151 µM | 2.63 | > 100 | 28.5 µM and 162 µM | 12.5 |
| Cn1ccnc1C(=O)/C=C/c1ccccc1 | 5.05 | 17 µM | 4.53 | 20.3 | 3.63 | 8.48 | 2.8 | 12.7 | 3.38 | 14.9 µM | 2.61 | 5.97 µM | 2.92 | 12.5 µM | 2.55 | 6.54 µM | 1.38 | 6.05 | 27.8 µM | 13.7 |
| c1cc(CNCCN2CCNCC2)ccn1 |  | > 100 µM |  | > 100 |  | > 100 |  | > 100 |  | > 100 µM |  | > 100 µM |  | > 100 µM |  | > 100 µM |  | > 100 | > 100 µM |  |
| CC[C@@H](C(=O)[C@@H](C)[C@@H](O)[C@H](C)[C@@H]1O[C@@H]([C@@H](CC)C(=O)N(CC)CC)CC[C@@H]1C)C1O[C@]2(C=CC(=O)[C@]3(CC[C@@](C)([C@H]4CC[C@](O)(CC)[C@H](C)O4)O3)O2)[C@H](C)C[C@@H]1C (stereo partly drawn) | 2.25 | 7.51 µM | 2.16 | 5.19 | 3.29 | 61.9 | 3.41 | 12.6 | 2.02 | 6.46 µM | 4.45 | 21.3 µM | 1.69 | 3.09 µM | 1.9 | 17.4 µM | 2.39 | 6.63 | 10.1 µM | 2.85 |
| COC(=O)C1=C(C)NC(C)=C(C(=O)OC)C1/C=C(Cl)/C=C/c1ccccc1 | 16.8 | 36 µM | 24.6 | 76 | 21.6 | 55.7 | 18.4 | 36.7 | 21.7 | 72 µM | 17.1 | 35 µM | 17.2 | 33.4 µM | 20 | 54.8 µM | 19.5 | 38.5 | 54.2 µM | 19.4 |
| COC(=O)CCCC(=O)O |  | > 100 µM |  | > 100 |  | > 100 |  | > 100 |  | > 100 µM |  | > 100 µM |  | > 100 µM |  | > 100 µM |  | > 100 | > 100 µM |  |
| N#CSCC1CC(O)(c2ccccc2)CC(c2ccc(F)cc2)O1 (stereo not drawn) | 1.9 | 4.1 µM | 2.1 | 6.43 | 1.94 | 4.31 | 1.56 | 3.45 | 1.4 | 3.1 µM | 4.23 | 15.4 µM | 1.74 | 3.26 µM | 1.44 | 3.24 µM | 0.572 | 3.19 | 5.28 µM | 2.32 |
| Fc1ccc(Nc2nc3nonc3nc2Nc2ccc(F)cc2)cc1 | 0.163 | 0.66 µM | 0.399 | 7.09 | 0.309 | 2.77 | 0.57 | 15 | 0.194 | 0.561 µM | 0.505 | 11 µM | 0.229 | 0.702 µM | 0.399 | 3.38 µM | 0.447 | 2.75 | 13.8 µM | 0.709 |
| O=C(NCc1ccc(Cn2c(=O)sn(-c3ccccc3)c2=O)cc1)OCc1ccc2c(Br)cc(Br)c(O)c2n1 | 1.53 | 2.9 µM | 0.281 | 0.927 | 0.614 | 1.99 | 0.992 | 2.19 | 0.309 | 1.08 µM | 1.17 | 2.4 µM | 1.44 | 2.75 µM | 0.606 | 1.97 µM | 0.376 | > 100 | 2.97 µM | 1.43 |
| COc1ccc(Nc2c3ccccc3nc3ccccc23)cc1 | 0.421 | 10.5 µM | 1.28 | 5.68 | 5.99 | 23.6 | 2.43 | 12.3 | 1.13 | 15.7 µM | 2.17 | 15.3 µM | 1.1 | 4.2 µM | 2.85 | 17.6 µM | 0.482 | 4.01 | 23 µM | 6.15 |
